# Laboratory results: article PMC4300089, “Structure-Guided Design of Selective Epac1 and Epac2 Agonists” (PLoS Biology, 2015)
# “And” between values parts separate entries of the source, which are not always exact repeats. Equal entries are not always repeated.
# How the values were obtained:
# Format in all cases: biochemical
# [1] = target: T1, PKA-IIβ (Homo sapiens, UniProt P31323); assay: PKA activity assay, PKA-IIβ; settings: for EC50: read-out: Kact; for A (PKA activity): PKAIIβ
# T1 construct: made in house
# Experimental: (§1) The recombinant human PKA catalytic subunit (Cα1) and the four human PKA regulatory subunits (RIα, RIβ, RIIα, RIIβ) were expressed, purified, and characterized as described. […] PKA holoenzymes were formed by mixing the R- and C-subunit at a molar ratio of 1.2:1 and extensive dialysis against 20 mM MOPS (pH 7.0), 150 mM NaCl, 2.5 mM β-mercaptoethanol, supplemented with 1 mM ATP and 10 mM MgCl2 for PKA-I at 4°C overnight. PKA holoenzymes were used at about 20 nM for the activation assay. The apparent activation constants (Kact) were determined by fitting the concentration-dependent activity to a sigmoid dose-response model.
# [2] = target: T2, PKA-IIα (Homo sapiens, UniProt P13861); assay: PKA activity assay, PKA-IIα; settings: for EC50: read-out: Kact; for A (PKA activity): PKAIIα
# T2 construct: made in house
# Experimental: as §1
# [3] = target: T3, Epac2^Δ280,K450E (Mus musculus, UniProt Q9EQZ6, K468E); assay: Epac activation assay, Epac2 K450E mutant
# T3 construct: made in house
# T3 sequence (Q9EQZ6 281-993 isoform Q9EQZ6-3 K450E): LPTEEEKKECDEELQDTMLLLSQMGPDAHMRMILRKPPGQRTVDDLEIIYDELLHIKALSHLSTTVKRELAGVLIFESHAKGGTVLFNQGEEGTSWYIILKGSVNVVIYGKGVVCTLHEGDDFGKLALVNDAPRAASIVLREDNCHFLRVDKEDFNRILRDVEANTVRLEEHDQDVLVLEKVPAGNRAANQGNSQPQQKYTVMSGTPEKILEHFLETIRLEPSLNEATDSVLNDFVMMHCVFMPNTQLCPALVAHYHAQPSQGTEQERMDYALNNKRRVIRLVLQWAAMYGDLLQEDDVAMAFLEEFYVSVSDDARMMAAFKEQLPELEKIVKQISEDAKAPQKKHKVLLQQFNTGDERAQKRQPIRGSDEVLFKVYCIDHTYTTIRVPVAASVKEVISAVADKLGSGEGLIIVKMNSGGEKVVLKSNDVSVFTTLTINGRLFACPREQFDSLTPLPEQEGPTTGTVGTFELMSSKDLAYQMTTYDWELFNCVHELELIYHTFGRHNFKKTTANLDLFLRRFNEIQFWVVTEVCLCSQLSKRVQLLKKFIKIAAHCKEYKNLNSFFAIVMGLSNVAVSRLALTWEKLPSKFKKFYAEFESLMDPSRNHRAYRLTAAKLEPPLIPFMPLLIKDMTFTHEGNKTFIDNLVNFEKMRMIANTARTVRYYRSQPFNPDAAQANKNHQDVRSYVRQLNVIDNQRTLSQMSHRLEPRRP
# Experimental: Murine Epac2 was used as all previous structural studies were performed with it.
# The activity of Epac was determined by a fluorescence assay. […] The fluorescence intensity of Rap1B•mGDP is approximately twice that of free mGDP, and thus, nucleotide exchange can be observed as a decay in fluorescence upon the addition of excess unlabeled GDP.
# T2 sequence (P13861 whole entry): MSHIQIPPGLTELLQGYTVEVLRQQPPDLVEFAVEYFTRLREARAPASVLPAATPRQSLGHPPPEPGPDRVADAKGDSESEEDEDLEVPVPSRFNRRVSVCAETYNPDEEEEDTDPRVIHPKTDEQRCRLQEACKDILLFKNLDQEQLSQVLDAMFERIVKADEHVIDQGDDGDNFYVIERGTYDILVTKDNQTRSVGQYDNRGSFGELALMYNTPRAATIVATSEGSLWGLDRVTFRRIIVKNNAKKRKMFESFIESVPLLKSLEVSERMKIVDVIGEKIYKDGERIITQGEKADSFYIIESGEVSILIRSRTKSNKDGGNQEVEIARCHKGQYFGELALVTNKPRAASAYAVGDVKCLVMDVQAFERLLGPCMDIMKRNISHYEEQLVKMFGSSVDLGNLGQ
# T1 sequence (P31323 whole entry): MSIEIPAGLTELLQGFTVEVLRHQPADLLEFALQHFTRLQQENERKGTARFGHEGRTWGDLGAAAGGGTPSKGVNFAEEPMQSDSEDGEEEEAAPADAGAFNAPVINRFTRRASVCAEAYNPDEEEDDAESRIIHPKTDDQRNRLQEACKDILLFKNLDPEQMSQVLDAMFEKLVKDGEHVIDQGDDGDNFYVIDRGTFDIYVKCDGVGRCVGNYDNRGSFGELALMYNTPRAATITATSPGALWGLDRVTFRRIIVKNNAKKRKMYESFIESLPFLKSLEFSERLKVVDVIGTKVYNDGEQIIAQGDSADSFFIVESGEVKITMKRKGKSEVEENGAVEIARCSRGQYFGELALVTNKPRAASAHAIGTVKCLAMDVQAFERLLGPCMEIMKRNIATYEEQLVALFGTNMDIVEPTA
smiles,measurement,setting,value
"COC1C2OP(=O)(O)OCC2OC1n1c(Sc2ccc(Cl)cc2)nc2c(N)ncnc21 [D-007, 8-pCPT-2′-O-Me-cAMP, reference compound]",EC50,[1]; PKA-IIβ,50 µM
same,A (PKA activity),[1]; concentration 1 μM,6.99 U/mg
same,A (PKA activity),[1]; concentration 1.00E+01 μM,1.06E+01 U/mg
same,A (PKA activity),[1]; concentration 1.00E-01 μM,6.554 U/mg
same,A (PKA activity),[1]; concentration 1.00E-05 μM,2.8563 U/mg
same,A (PKA activity),[1]; concentration 2.50E+02 μM,1.60E+01 U/mg
same,A (PKA activity),[1]; concentration 5.00E+01 μM,1.46E+01 U/mg
same,A (PKA activity),[1]; concentration 5.00E+02 μM,1.87E+01 U/mg
same,EC50,[2]; PKA-IIα,> 70 µM
same,A (PKA activity),[2]; concentration 1 μM,7.998 U/mg
same,A (PKA activity),[2]; concentration 1.00E+01 μM,1.14E+01 U/mg
same,A (PKA activity),[2]; concentration 1.00E+03 μM,1.97E+01 U/mg
same,A (PKA activity),[2]; concentration 1.00E-01 μM,4.917 U/mg
same,A (PKA activity),[2]; concentration 1.00E-02 μM,4.453 U/mg
same,A (PKA activity),[2]; concentration 1.00E-03 μM,5.045 U/mg
same,A (PKA activity),[2]; concentration 1.00E-04 μM,4.937 U/mg
same,A (PKA activity),[2]; concentration 1.00E-05 μM,3.782 U/mg
same,A (PKA activity),[2]; concentration 2.50E+02 μM,1.57E+01 U/mg
same,A (PKA activity),[2]; concentration 5.00E+01 μM,1.39E+01 U/mg
same,A (PKA activity),[2]; concentration 5.00E+02 μM,1.77E+01 U/mg
same,A (PKA activity),[2]; concentration […],9.518 U/mg
"Cc1ccc(CSc2nc3c(N)ncnc3n2[C@@H]2O[C@@H]3CO[P@](O)(=S)O[C@H]3[C@H]2O)cc1 [S-230, Sp-8-pMeBnT-cAMPS]",A (PKA activity),[1]; concentration 1 μM,2.854 U/mg
same,A (PKA activity),[1]; concentration 1.00E+01 μM,3.182 U/mg
same,A (PKA activity),[1]; concentration 1.00E-01 μM,1.472 U/mg
same,A (PKA activity),[1]; concentration 1.00E-02 μM,1.965 U/mg
same,A (PKA activity),[1]; concentration 1.00E-03 μM,1.941 U/mg
same,A (PKA activity),[1]; concentration 1.00E-05 μM,2.019 U/mg
same,A (PKA activity),[1]; concentration 5.00E+01 μM,6.801 U/mg
same,A (PKA activity),[1]; concentration 5.00E+02 μM,9.038 U/mg
same,A (PKA activity),[2]; concentration 1 μM,8.2345 U/mg
same,A (PKA activity),[2]; concentration 5 μM,1.10E+01 U/mg
same,A (PKA activity),[2]; concentration 1.00E+01 μM,1.22E+01 U/mg
same,A (PKA activity),[2]; concentration 1.00E+03 μM,2.30E+01 U/mg
same,A (PKA activity),[2]; concentration 1.00E-01 μM,5.026 U/mg
same,A (PKA activity),[2]; concentration 1.00E-02 μM,4.542 U/mg
same,A (PKA activity),[2]; concentration 1.00E-04 μM,5.243 U/mg
same,A (PKA activity),[2]; concentration 1.00E-05 μM,3.782 U/mg
same,A (PKA activity),[2]; concentration 2.50E+02 μM,1.76E+01 U/mg
same,A (PKA activity),[2]; concentration 5.00E+01 μM,1.58E+01 U/mg
same,A (PKA activity),[2]; concentration 5.00E+02 μM,2.11E+01 U/mg
"Nc1ncnc2c1nc(SCc1ccccc1)n2[C@@H]1O[C@@H]2CO[P@](O)(=S)O[C@H]2[C@H]1O [S-220, Sp-8-BnT-cAMPS]",Kact compared to cAMP (times higher / affinity reduced),[1]; PKA-IIβ,comparable affinities
same,EC50,[1]; PKA-IIβ,0.21 µM
same,A (PKA activity),[1]; concentration 1 μM,1.92E+01 U/mg
same,A (PKA activity),[1]; concentration 1.00E+01 μM,2.49E+01 U/mg
same,A (PKA activity),[1]; concentration 1.00E-01 μM,1.08E+01 U/mg
same,A (PKA activity),[1]; concentration 1.00E-02 μM,5.378 U/mg
same,A (PKA activity),[1]; concentration 1.00E-03 μM,4.482 U/mg
same,A (PKA activity),[1]; concentration 1.00E-04 μM,4.9341 U/mg
same,A (PKA activity),[1]; concentration 1.00E-05 μM,2.8563 U/mg
same,A (PKA activity),[1]; concentration 2.50E+02 μM,2.44E+01 U/mg
same,A (PKA activity),[1]; concentration 2.50E-01 μM,1.60E+01 U/mg
same,Kact compared to cAMP (times higher / affinity reduced),[2]; PKA-IIα,three to eight times higher
same,EC50,[2]; PKA-IIα,0.27 µM
same,A (PKA activity),[2]; concentration 1 μM,1.74E+01 U/mg
same,A (PKA activity),[2]; concentration 1.00E+01 μM,2.30E+01 U/mg
same,A (PKA activity),[2]; concentration 1.00E-01 μM,1.09E+01 U/mg
same,A (PKA activity),[2]; concentration 1.00E-02 μM,5.815 U/mg
same,A (PKA activity),[2]; concentration 1.00E-03 μM,5.193 U/mg
same,A (PKA activity),[2]; concentration 1.00E-04 μM,4.739 U/mg
same,A (PKA activity),[2]; concentration 1.00E-05 μM,3.782 U/mg
same,A (PKA activity),[2]; concentration 2.50E+02 μM,2.28E+01 U/mg
same,A (PKA activity),[2]; concentration 2.50E-01 μM,1.40E+01 U/mg
same,A (PKA activity),[2]; concentration 2.50E-02 μM,8.017 U/mg
same,kobs,[3]; 0.001 μM compound,3.4e-05 s⁻¹
same,kobs,[3]; 0.003 μM compound,4.1e-05 s⁻¹
same,kobs,[3]; 0.005 μM compound,4.7e-05 s⁻¹
same,kobs,[3]; 0.008 μM compound,5.6e-05 s⁻¹
same,kobs,[3]; 0.01 μM compound,7.9e-05 s⁻¹
same,kobs,[3]; 0.03 μM compound,0.000149 s⁻¹
same,kobs,[3]; 0.04 μM compound,0.000174 s⁻¹
same,kobs,[3]; 0.05 μM compound,0.000201 s⁻¹
same,kobs,[3]; 0.06 μM compound,0.000239 s⁻¹
same,kobs,[3]; 0.07 μM compound,0.000269 s⁻¹
same,kobs,[3]; 0.08 μM compound,0.000291 s⁻¹
same,kobs,[3]; 0.1 μM compound,0.000329 s⁻¹
same,kobs,[3]; 0.2 μM compound,0.000621 s⁻¹
same,kobs,[3]; 0.3 μM compound,0.000717 s⁻¹
same,kobs,[3]; 0.4 μM compound,0.000786 s⁻¹
same,kobs,[3]; 0.5 μM compound,0.000805 s⁻¹
same,kobs,[3]; 0.6 μM compound,0.000891 s⁻¹
same,kobs,[3]; 0.7 μM compound,0.000938 s⁻¹
same,kobs,[3]; 0.8 μM compound,0.000942 s⁻¹
same,kobs,[3]; 1 μM compound,0.000907 s⁻¹
same,kobs,[3]; 2 μM compound,0.00111 s⁻¹
same,kobs,[3]; 3 μM compound,0.00113 s⁻¹
same,kobs,[3]; 4 μM compound,0.00112 s⁻¹
same,kobs,[3]; 5 μM compound,0.00108 s⁻¹
same,kobs,[3]; 6 μM compound,0.00112 s⁻¹
same,kobs,[3]; 7 μM compound,0.00112 s⁻¹
same,kobs,[3]; 8 μM compound,0.00112 s⁻¹
same,kobs,[3]; 10 μM compound,0.00104 s⁻¹
"Nc1ncnc2c1ncn2C1OC2COP(O)(=S)OC2C1O (stereo not shown) [S-000, Sp-cAMPS]",kobs,[3]; 0.01 μM compound,4.6e-05 s⁻¹
same,kobs,[3]; 0.05 μM compound,6.3e-05 s⁻¹
same,kobs,[3]; 0.08 μM compound,7.4e-05 s⁻¹
same,kobs,[3]; 0.1 μM compound,8e-05 s⁻¹ and 9.8e-05 s⁻¹
same,kobs,[3]; 0.3 μM compound,0.000139 s⁻¹
same,kobs,[3]; 0.4 μM compound,0.000171 s⁻¹
same,kobs,[3]; 0.5 μM compound,0.000194 s⁻¹
same,kobs,[3]; 0.6 μM compound,0.000231 s⁻¹
same,kobs,[3]; 0.7 μM compound,0.000249 s⁻¹
same,kobs,[3]; 0.8 μM compound,0.000268 s⁻¹
same,kobs,[3]; 1 μM compound,0.000297 s⁻¹
same,kobs,[3]; 2 μM compound,0.000427 s⁻¹
same,kobs,[3]; 3 μM compound,0.000527 s⁻¹
same,kobs,[3]; 4 μM compound,0.000575 s⁻¹
same,kobs,[3]; 5 μM compound,0.000593 s⁻¹
same,kobs,[3]; 6 μM compound,0.000641 s⁻¹
same,kobs,[3]; 7 μM compound,0.000636 s⁻¹
same,kobs,[3]; 8 μM compound,0.00067 s⁻¹
same,kobs,[3]; 10 μM compound,0.000647 s⁻¹
same,kobs,[3]; 20 μM compound,0.000817 s⁻¹
same,kobs,[3]; 30 μM compound,0.000851 s⁻¹
same,kobs,[3]; 40 μM compound,0.00083 s⁻¹
same,kobs,[3]; 50 μM compound,0.000833 s⁻¹
same,kobs,[3]; 60 μM compound,0.000819 s⁻¹
same,kobs,[3]; 70 μM compound,0.000826 s⁻¹
same,kobs,[3]; 80 μM compound,0.000827 s⁻¹
same,kobs,[3]; 100 μM compound,0.000823 s⁻¹
